Test [1] has as its target α1β1γδ subtype of nicotinic acetylcholine receptors (Rattus norvegicus, UniProt P18916+P25108+P25110). The experiment in a line: biochemical. The test is classed as binding. The settings on record: for Ki: read-out: Affinities for receptors Ki α1β1γδ, rat muscle extract, [3H]-α-Bgt 1 nM; for remaining activity at 100 µM / remaining activity at 1000 µM: read-out: control % of [3H]-α-Bgt binding. An excerpt:
(§1) The methods for evaluating the binding capabilities of the compounds at nicotinic acetylcholine receptors are different by subtypes of receptors. The binding capabilities of the compounds at α4β2 nicotinic acetylcholine receptors are examined using rat brain membrane obtained from whole homogenized brain, and determining the inhibiting rate of the compounds against [^3H]-cytisine binding to said brain membrane. Furthermore, the binding capabilities of the compounds at α1β1γδ nicotinic acetylcholine receptors are examined using homogenized rat muscle, and determining the inhibiting rate of the compounds against [^3H]-α-bungarotoxin binding to said muscle homogenate.
The affinity of the compounds of the present invention to α1β1γδ subtype of nicotinic acetylcholine receptors was measured by the following method, which was modified method described by Garcha H. S., Thomas P., Spivak C. E., Wonnacott S. & Stolerman I. P., Psychropharmacology, 110, 347-354 (1993).
(1) Preparation of Rat Skeletal Muscles Containing α1β1γδ Subtype of Nicotinic Acetylcholine Receptors
The substantially same animals described in the Biological Experiment 1 were used.
The isolation of α1β1γδ subtype of nicotinic acetylcholine receptors was performed as follow. That is, rat posterior skeletal muscles were isolated just after sacrificed by decapitation, washed with ice-cooled saline solution and then frozen at −80° C. with liquid nitrogen and stored till using. After thawing the frozen muscles, tissue was homogenized (40% w/v) with buffer solution [2.5 mM of sodium phosphate buffer (pH:7.2), 90 mM of NaCl, 2 mM of KCl, 1 mM of EDTA, 2 mM of benzamidine, 0.1 mM of benzethonium chloride, 0.1 mM of PMSF, 0.01% of sodium azide] in Waring blender (Waring blender 34BL97; WARING PRODUCTS DIVISION DYNAMICS CORPORATION OF AMERICA) for 60 seconds. The homogenate were centrifuged under 20,000×G for 60 minutes at 4° C. The supernatant was separated and the resulting pellet was added to the same buffer (1.5 ml/g wet weight), and homogenized under the same conditions. Triton X100 (2% w/v) was added and the mixture was stirred for 3 hours at 4° C. The centrifugation at 100,000×G for 60 minutes at 4° C. yielded the rat muscle extract as supernatant. This was stored at 4° C. for up to 4 weeks, and used for binding assays at receptors.
(2) Experiments of α1β1γδ Subtype of Nicotinic Acetylcholine Receptors Binding
Receptors binding experiments were performed as follow. That is, the extract of rat muscle containing 600-900 μg of protein was added to test tubes containing test compounds and incubated for 15 minutes at 37° C. Then, to this mixture was added 1 nM of [^3H]-α-bungarotoxin (α-Bgt) and further incubated for 2 hours. The samples were isolated by vacuum filtration onto Whatman GF/B filters, which were prerinsed with 0.5% polyethylenimine just prior to sample filtration, using Brandel multi manifold cell harvester. The filters were rapidly rinsed with washing solution (10 mM of KH2PO4, 150 mM of NaCl, pH 7.2, room temperature) (5×1 ml). The filters were counted in 3 ml of clearsol I (Nacalai Tesque Inc.). The determination of nonspecific binding was incubated in the presence of 1 μM α-Bgt. The solutions containing α-Bgt (labeled/non-labeled) were prepared by using buffer solution containing 0.25% of BSA. In the receptor binding experiments, said buffer solution was added for adjusting the final concentration of BSA to be 0.05%.
The analyses of the experimental results were conducted by the same way as described in the Biological Experiment 1.

For test [2], the target named is T1, α4β2 subtype of nicotinic acetylcholine receptors (Rattus norvegicus, UniProt P09483+P12390).
T1 construct: rat brain membrane obtained from whole homogenized brain; from tissue; host or cells: whole brain of Fischer-344 male rats, membrane fraction
T1 sequence (P09483 31-630): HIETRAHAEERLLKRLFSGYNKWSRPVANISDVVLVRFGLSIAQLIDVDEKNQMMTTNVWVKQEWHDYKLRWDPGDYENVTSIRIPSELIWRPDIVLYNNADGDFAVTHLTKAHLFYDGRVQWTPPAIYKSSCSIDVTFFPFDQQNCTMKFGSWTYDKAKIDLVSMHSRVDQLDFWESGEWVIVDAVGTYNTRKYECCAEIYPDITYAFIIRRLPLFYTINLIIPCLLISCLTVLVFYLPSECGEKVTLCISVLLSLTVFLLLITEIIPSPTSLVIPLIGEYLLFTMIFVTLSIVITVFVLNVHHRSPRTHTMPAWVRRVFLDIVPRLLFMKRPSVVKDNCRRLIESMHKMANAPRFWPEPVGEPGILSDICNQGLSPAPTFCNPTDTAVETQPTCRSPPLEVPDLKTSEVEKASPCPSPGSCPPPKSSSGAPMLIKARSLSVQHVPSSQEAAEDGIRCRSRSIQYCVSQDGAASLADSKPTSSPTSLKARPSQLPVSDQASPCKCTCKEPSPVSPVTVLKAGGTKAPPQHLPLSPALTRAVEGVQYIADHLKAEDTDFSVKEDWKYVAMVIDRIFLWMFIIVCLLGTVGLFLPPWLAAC
T1 sequence (P12390 25-500): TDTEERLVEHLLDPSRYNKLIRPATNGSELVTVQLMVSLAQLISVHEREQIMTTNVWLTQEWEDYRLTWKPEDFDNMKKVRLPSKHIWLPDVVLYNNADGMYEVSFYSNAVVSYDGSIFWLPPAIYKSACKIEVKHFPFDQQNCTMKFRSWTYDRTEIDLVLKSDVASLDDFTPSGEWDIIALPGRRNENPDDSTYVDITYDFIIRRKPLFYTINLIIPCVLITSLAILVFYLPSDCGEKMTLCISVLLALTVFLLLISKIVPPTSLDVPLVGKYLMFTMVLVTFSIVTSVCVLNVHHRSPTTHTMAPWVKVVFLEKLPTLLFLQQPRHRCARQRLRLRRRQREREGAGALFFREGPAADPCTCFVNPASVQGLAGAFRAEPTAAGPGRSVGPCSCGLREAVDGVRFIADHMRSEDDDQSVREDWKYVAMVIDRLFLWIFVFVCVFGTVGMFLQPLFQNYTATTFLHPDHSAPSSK
The experiment in a line: Binding assay at α4β2 subtype of nicotinic acetylcholine receptors ([3H]-cytisine, rat brain membrane). The following applies: for remaining activity at 1 µM / remaining activity at 10 µM: read-out: control % of [3H]-cytisine binding.
Excerpt: as §1
The affinity of the compounds of the present invention to α4β2 subtype of nicotinic acetylcholine receptors was performed by the following method, which was modified method described by Pabreza L. A., Dhawan S. & Kellar K. J., Mol. Pharm., 39, 9-12 (1990), and by Anderson D. J. & Arneric S. P., Eur. J. Pharm., 253, 261-267 (1994).
(1) Preparation of Rat Brain Membrane Containing α4β2 Subtype of Nicotinic Acetylcholine Receptors
Fischer-344 strain male rats (body weight: 200-240 g; 9 weeks old) obtained from Charles River Japan were used. Rats were housed in the breeding cage controlled of the room temperature at 23±1° C., and the humidity of 55±5% for 1 to 4 weeks. Rats (3 to 4 rats per a cage) were housed with lights on for 12 hours daily (from 7:00 to 19:00), and allowed free access to food and water.
Preparation of rat brain membrane containing α4β2 subtype of nicotinic acetylcholine receptors was performed as follow. That is, rat brains were isolated just after sacrificed by decapitation, washed with ice-cooled saline solution and then frozen at −80° C. with liquid nitrogen and stored till using. After thawing the frozen brain, the brain was homogenized in 10 volumes of ice-cooled buffer solution (50 mM of Tris-HCl, 120 mM of NaCl, 5 mM of KCl, 1 mM of MgCl2, 2 mM of CaCl2; pH 7.4; 4° C.) using homogenizer (HG30, Hitachi Kohki Ltd.) for 30 seconds, and the homogenate were centrifuged under 1,000×G for 10 minutes at 4° C. The resulting supernatant was separated and the pellet was homogenized again with half volume of aforementioned prior buffer solution and centrifuged under the same conditions. Combined supernatant was further centrifuged under 40,000×G for 20 minutes at 4° C. The pellet was suspended in buffer solution and used for binding assays at receptors.
(2) Experiments of α4β2 Subtype of Nicotinic Acetylcholine Receptors Binding
Suspensions of membrane pellets containing 400-600 μg of protein were added to test tubes containing test compounds and [^3H]-cytisine (2 nM) in a final volume of 200 μl and incubated for 75 minutes in ice-cooled bath. The samples were isolated by vacuum filtration onto Whatman GF/B filters, which were prerinsed with 0.5% polyethylenimine just prior to sample filtration, using Brandel multi manifold cell harvester. The filters were rapidly washed with buffer solution (3×1 ml). The filters were counted in 3 ml of clearsol I (Nacalai Tesque Inc.).
The analyses of the experimental results were conducted by using the Accufit Competition Program (Beckman Ltd.).

Setting [3] is: 1 μM of test compound, rat brain membrane.
[4] abbreviates: 10 μM of test compound, rat brain membrane.

Like-named read-outs stand apart in the source and are kept apart here.

Sequence of α1β1γδ subtype of nicotinic acetylcholine receptors (P25109 24-501): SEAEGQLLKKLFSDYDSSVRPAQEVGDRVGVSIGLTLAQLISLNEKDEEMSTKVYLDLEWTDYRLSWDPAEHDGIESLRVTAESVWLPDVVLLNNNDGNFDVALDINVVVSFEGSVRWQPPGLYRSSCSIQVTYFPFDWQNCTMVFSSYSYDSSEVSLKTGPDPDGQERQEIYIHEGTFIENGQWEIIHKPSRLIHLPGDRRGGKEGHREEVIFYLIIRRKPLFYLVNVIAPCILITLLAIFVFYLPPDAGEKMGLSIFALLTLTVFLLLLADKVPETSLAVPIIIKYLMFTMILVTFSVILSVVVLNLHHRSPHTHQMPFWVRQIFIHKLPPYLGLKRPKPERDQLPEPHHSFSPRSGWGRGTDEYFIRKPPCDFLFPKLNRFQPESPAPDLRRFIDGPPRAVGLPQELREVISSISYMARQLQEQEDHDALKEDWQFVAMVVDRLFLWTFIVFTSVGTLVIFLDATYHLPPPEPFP
Sequence of α1β1γδ subtype of nicotinic acetylcholine receptors (P25110 22-517): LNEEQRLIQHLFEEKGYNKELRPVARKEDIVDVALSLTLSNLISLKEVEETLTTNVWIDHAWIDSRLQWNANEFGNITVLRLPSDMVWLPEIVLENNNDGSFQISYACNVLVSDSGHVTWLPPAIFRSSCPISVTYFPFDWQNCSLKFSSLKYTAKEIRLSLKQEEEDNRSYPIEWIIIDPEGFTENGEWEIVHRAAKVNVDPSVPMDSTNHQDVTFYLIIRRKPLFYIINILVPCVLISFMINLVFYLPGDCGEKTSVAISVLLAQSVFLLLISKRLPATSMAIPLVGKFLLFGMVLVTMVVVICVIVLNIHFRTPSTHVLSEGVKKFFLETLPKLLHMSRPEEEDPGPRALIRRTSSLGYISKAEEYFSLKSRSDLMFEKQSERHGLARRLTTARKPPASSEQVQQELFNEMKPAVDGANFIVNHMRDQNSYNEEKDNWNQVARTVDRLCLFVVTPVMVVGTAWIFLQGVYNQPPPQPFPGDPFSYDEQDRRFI
Sequence of α1β1γδ subtype of nicotinic acetylcholine receptors (P25108 21-457): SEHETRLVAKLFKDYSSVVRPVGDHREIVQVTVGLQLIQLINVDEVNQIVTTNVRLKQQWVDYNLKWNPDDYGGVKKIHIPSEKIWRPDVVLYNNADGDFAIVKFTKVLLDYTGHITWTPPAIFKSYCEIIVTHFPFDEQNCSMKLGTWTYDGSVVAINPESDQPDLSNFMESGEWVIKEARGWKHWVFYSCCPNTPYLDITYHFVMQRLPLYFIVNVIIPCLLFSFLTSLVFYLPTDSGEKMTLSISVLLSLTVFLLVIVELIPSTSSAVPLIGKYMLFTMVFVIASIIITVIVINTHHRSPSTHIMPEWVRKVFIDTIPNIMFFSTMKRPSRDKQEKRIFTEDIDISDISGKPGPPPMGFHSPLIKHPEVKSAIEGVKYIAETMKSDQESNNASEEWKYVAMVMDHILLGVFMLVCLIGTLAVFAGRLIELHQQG
Sequence of α1β1γδ subtype of nicotinic acetylcholine receptors (P18916 23-519): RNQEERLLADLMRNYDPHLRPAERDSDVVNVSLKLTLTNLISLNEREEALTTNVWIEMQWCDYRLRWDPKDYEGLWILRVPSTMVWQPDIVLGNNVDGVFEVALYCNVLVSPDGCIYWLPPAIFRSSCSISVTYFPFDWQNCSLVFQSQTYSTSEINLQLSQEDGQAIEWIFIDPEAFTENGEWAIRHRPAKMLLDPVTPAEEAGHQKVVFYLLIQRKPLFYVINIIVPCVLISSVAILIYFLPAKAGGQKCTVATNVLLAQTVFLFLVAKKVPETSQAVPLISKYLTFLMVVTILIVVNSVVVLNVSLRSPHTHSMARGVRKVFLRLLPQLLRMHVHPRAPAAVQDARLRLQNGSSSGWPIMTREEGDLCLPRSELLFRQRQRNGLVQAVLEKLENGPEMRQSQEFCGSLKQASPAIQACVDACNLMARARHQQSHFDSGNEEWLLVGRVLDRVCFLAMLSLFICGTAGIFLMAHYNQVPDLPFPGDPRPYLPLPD

As for `CN1CCCC1c1cccnc1` (single isomer, unassigned; (-)) [Nicotine, (−)-nicotine, reference compound], in test [1], the Ki stood at 182 µM.
Take `N=C1SCCN1CC(=O)c1ccccc1` [Compound 1, 2-imino-3-phenacylthiazolidine]: the remaining activity at 1 µM in test [2] (setting [3]) came out at 93%. Also, the remaining activity at 10 µM in test [2] (setting [4]) stood at 68%.
As to `CC(=O)Cn1ccsc1=N` [Compound 2, 3-acetonyl-2-imino-2,3-dihydrothiazole], the remaining activity at 1 µM in test [2] (setting [3]) was found to be 107%. In addition, in test [2] (setting [4]), the remaining activity at 10 µM amounted to 101%.
For the compound `N=c1ncccn1CCc1ccc(Cl)nc1` [Compound 3, 1-[2-(6-chloro-3-pyridyl)ethyl]-2-imino-1,2-dihydropyrimidine], in test [2], the remaining activity at 1 µM worked out at 72% and the remaining activity at 10 µM was 17%. In addition, in test [1], the remaining activity at 100 µM worked out at 72% and the remaining activity at 1000 µM turned out to be 39%.
Turning to `Cc1csc(=N)n1CCc1ccc(Cl)nc1` [Compound 4, 3-[2-(6-chloro-3-pyridyl)ethyl]-2-imino-4-methyl-2,3-dihydrothiazole], the inhibition constant (Ki) was 0.0056 µM in test [2] and 10 µM in test [1].
The corresponding values for `N=C1SCCN1CCc1ccc(Cl)nc1` [Compound 5, 3-[2-(6-chloro-3-pyridyl)ethyl]-2-iminothiazolidine] are 0.0048 µM and 34 µM.
With `Cc1cn(CCc2ccc(Cl)nc2)c(=N)s1` [Compound 6, 3-[2-(6-chloro-3-pyridyl)ethyl]-2-imino-5-methyl-2,3-dihydro-thiazole], in test [2], the remaining activity at 1 µM was 77% and the remaining activity at 10 µM is 35%. Moreover, in test [1], the remaining activity at 100 µM turned out to be 82% and the remaining activity at 1000 µM was 61%.
As to `Nc1nccn1CCc1ccc(Cl)nc1` [Compound 7, 2-amino-1-[2-(6-chloro-pyridyl)ethyl]imidazole], the Ki in test [2] is 0.0049 µM; in test [1], 184 µM.
Take `N=C1SCCN1CC(=O)c1ccc(Cl)nc1` [Compound 8, 1-(6-chloro-3-pyridyl)-2-(2-imino-3-thiazolidinyl)-1-ethanone]: the inhibition constant (Ki) in test [2] was 0.062 µM; in test [1], 1830 µM.
As to `N=C1SCCN1CC(O)c1ccc(Cl)nc1` (centres unmarked) [Compound 9, 1-(6-Chloro-3-pyridyl)-2-(2-imino-3-thiazolidinyl)-1-ethanol], in test [2], the remaining activity at 1 µM was 97% and the remaining activity at 10 µM worked out at 43%. For the same compound, in test [1], the remaining activity at 100 µM amounted to 72% and the remaining activity at 1000 µM came out at 35%.
Consider `Cc1sc(=N)n(CCc2ccc(Cl)nc2)c1C` [Compound 10, 3-[2-(6-chloro-3-pyridyl)ethyl]-2-imino-4,5-dimethyl-2,3-dihydrothiazole], for which the results for the inhibition constant Ki in test [2] and in test [1] were 0.051 µM and 215 µM, respectively.
Consider `N=c1ccc(Cl)nn1CCc1ccc(Cl)nc1` [Compound 15, 6-chloro-2-[2-(6-chloro-3-pyridyl)ethyl]-3-imino-2,3-dihydropyridazine], for which, in test [2], the remaining activity at 1 µM came to 60% and the remaining activity at 10 µM came to 12%. In addition, in test [1], the remaining activity at 100 µM was 93% and the remaining activity at 1000 µM worked out at 61%.
On to `N=c1ccccn1CCc1ccc(Cl)nc1` [Compound 16, 1-[2-(6-chloro-3-pyridyl)ethyl]-2-imino-1,2-dihydropyridine], for which the inhibition constant (Ki) in test [2] was found to be 0.061 µM; in test [1], 227 µM.
`Nc1nccn1CCc1ccc(Cl)cc1` [Compound 17, 2-amino-1-[2-(4-chlorophenyl)ethyl]imidazole]: in test [2] (setting [3]), the remaining activity at 1 µM was 97%. In addition, the remaining activity at 10 µM in test [2] (setting [4]) was 78%. In test [1], the remaining activity at 100 µM amounted to 83% and the remaining activity at 1000 µM came to 67%.
For `CC(Cn1ccsc1=N)c1ccc(Cl)nc1` (centres unmarked) [Compound 18, 3-[2-(6-chloro-3-pyridyl)propyl]-2-imino-2,3-dihydrothiazole], the results for the Ki in test [2] and in test [1] were 0.084 µM and 173 µM, respectively.
For the compound `Nc1nccn1CCc1ccccn1` [Compound 19, 2-amino-1-[2-(2-pyridyl)ethyl]imidazole], the remaining activity at 1 µM in test [2] (setting [3]) amounted to 103%. The remaining activity at 10 µM in test [2] (setting [4]) was 106%. Further, in test [1], the remaining activity at 100 µM turned out to be 106% and the remaining activity at 1000 µM was determined as 86%.
For `Nc1nccn1CCc1ccncc1` [Compound 20, 2-amino-1-[2-(4-pyridyl)ethyl]imidazole], in test [2] (setting [3]), the remaining activity at 1 µM amounted to 97%. Besides, the remaining activity at 10 µM in test [2] (setting [4]) was found to be 95%. Moreover, in test [1], the remaining activity at 100 µM amounted to 109% and the remaining activity at 1000 µM amounted to 90%.
Take `Cc1nc(N)n(CCc2ccc(Cl)nc2)c1C` [Compound 21, 2-amino-1-[2-(6-chloro-3-pyridyl)ethyl]-4,5-dimethylimidazole]: the inhibitory constant (Ki) in test [2] amounted to 0.097 µM; in test [1], 175 µM.
For `N=c1sccn1CCc1ccc(Cl)nc1` [Compound 22, 3-[2-(6-chloro-3-pyridyl)ethyl]-2-imino-2,3-dihydrothiazole], the inhibition constant (Ki) was 0.0074 µM in test [2] and 132 µM in test [1].
Taken in the same sequence, the figures for `N=c1sccn1CCc1cnc(Cl)s1` [Compound 24, 3-[2-(2-chloro-5-thiazolyl)ethyl]-2-imino-2,3-dihydrothiazole] were 0.035 µM and 58 µM.
Take `Nc1nccn1CCc1ccc(O)cc1` [Compound 26, 2-amino-1-[2-(4-hydroxyphenyl)ethyl]imidazole]: the remaining activity at 1 µM in test [2] (setting [3]) is 93%. In addition, the remaining activity at 10 µM in test [2] (setting [4]) stood at 60%. In addition, in test [1], the remaining activity at 100 µM is 81% and the remaining activity at 1000 µM was 50%.
As to `Cc1cncc(CCn2ccsc2=N)c1` [Compound 28, 2-imino-3-[2-(5-methyl-3-pyridyl)ethyl]-2,3-dihydrothiazole], the inhibition constant (Ki) in test [2] (rat brain membrane, [3H]-cytisine 2 nM, read-out: Affinities for receptors Ki α4β2) was determined as 0.027 µM; in test [1], 94 µM.

A word on the Ki: it is a measure of affinity in units of concentration, obtained from inhibition or displacement.

Values taken from patent US20030134848A1, “Substituted 1-aza-2-imino-heterocycles and their use as nicotinic acetylcholin receptors activators” (priority 2000, published 2003).
